Measured values published in patent US20200405666A9, “TREATMENT OF SYMPTOMS ASSOCIATED WITH FEMALE GASTROPARESIS” (priority 2011, published 2020).
Entries after “also recorded” stand apart in the source; their conditions may differ.

Experiment: Plasma concentration of metoclopramide 30 minutes post-dose, Visit 3 (single dose) and Visit 7 (steady state)
Assay type: in vivo, human
Conditions: 10 mg and 14 mg IN, Visit 3 and Visit 7, 30 minutes post-dose
Experimental: Pharmacokinetic (PK) blood samples for the determination of metoclopramide concentration were obtained from all subjects on Visit 3, Day 0 (pre-dose and 30 minutes after dosing [single dose]) and at the Final Visit (Day 28) 30 minutes post-dose (steady state).
Pharmacokinetics: The pharmacokinetics (PK) of the study drug was evaluated in all subjects. FIG. 1 summarizes PK data (blood plasma concentration of metoclopramide in ng/mL) for both Treatment Arms (10 mg and 14 mg, intranasal) on visit 3 and visit 7. Individual data are represented by circles and the arithmetic mean and geometric mean of each group is represented by lines. (In each case, the upper line represents the arithmetic mean and the lower line represents the geometric mean.) In FIG. 2, the PK data are analyzed by gender.

CCN(CC)CCNC(=O)c1cc(Cl)c(N)cc1OC [metoclopramide, -amino-5-chloro-N-(2-(diethylamino)ethyl)-2-methoxybenzamide]
Difference in PK data (blood plasma concentration) between females and males: no statistical difference; also recorded: not statistically significant
